Counter-ions that a name gives are not always drawn.
Key:
NHE3 [1] = biological target: T1, NHE3 (UniProt P48764); test: Cell-based NHE3 activity under persistent conditions (60 min pre-incubation, compound removed); parameters: species or system Rat or Human; settings: opossum kidney cells expressing NHE3, read-out: Cell-based NHE3 inhibition IC50 (uM) under persistent conditions
T1 sequence (P48764 1-834): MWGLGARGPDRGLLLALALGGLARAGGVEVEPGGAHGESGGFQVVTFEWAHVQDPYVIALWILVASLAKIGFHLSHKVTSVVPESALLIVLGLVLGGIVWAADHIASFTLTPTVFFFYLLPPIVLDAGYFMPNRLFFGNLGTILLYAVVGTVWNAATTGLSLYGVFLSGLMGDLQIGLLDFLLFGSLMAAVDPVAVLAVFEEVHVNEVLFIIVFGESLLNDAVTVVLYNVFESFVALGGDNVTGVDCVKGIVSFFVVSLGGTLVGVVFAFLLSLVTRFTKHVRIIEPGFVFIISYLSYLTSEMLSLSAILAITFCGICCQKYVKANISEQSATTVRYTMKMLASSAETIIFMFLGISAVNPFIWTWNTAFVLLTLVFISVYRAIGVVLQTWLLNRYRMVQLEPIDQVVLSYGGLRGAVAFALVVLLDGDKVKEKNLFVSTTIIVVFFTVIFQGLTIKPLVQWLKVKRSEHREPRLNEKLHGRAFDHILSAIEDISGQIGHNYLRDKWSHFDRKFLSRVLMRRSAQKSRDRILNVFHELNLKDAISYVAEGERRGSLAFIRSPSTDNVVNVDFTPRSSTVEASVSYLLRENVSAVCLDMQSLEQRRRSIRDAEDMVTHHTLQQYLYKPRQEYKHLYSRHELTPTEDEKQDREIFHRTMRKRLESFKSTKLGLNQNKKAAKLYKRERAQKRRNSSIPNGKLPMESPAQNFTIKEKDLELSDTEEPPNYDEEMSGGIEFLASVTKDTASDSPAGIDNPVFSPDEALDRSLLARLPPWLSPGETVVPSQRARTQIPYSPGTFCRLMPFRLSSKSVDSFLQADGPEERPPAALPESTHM
Source text: (§1) Opossum kidney (OK) cells were obtained from ATCC and cultured and expanded according to its instructions. OK monoclonal stable cell lines expressing the Rat NHE3 (Gene Bank registration number: M85300) protein and OK monoclonal stable cell lines expressing the Human NHE3 (Gene Bank registration number: NM_004174.1) protein were constructed by lentivirus infection.
The general procedure of the cell-based NHE3 activity assay under persistent conditions (persistent inhibition) was: Rat NHE3 OK monoclonal cells or Human NHE3 OK monoclonal cells were inoculated into 384-well plates and grew overnight. The medium was aspirated from the wells and the cells were washed twice with FLIPR buffer (Hank's BSS 1×, 20 mM HEPES, 1% BSA) followed by the addition of Na-HEPES buffer containing […] test compound (100 mM NaCl, 50 mM HEPES, 10 mM glucose, 5 mM KCl, 2 mM CaCl2, 1 mM MgCl2, pH 7.4) and incubated for 60 minutes at room temperature. The compounds were aspirated from the wells and incubated with FLIPR buffer (Hank's BSS 1×, 20 mM HEPES, 1% BSA) containing […] BCECF-AM (Invitrogen) for 45 minutes at room temperature. Subsequently, […] of 200 mM NH4Cl-HEPES buffer (Hank's BSS 1×, 20 mM HEPES, 200 mM NH4Cl) was added and incubated for 15-20 minutes at room temperature. The cells were washed twice with 20 mM NH4Cl-HEPES buffer (Hank's BSS 1×, 20 mM HEPES, 20 mM […]). […] Ratio=fluorescence value (λex 490 nm)/fluorescence value (λex 440 nm) was set, the average value of the Ratio difference between the end time and the start time between the duplicate wells was calculated, the average value and the concentration value of the compound were drawn, and the dose-response-inhibition (four parameters) equation was used to estimate EC50 value by GraphpadPrism.

NHE3 [2] = biological target: T1, NHE3; test: Cell-based NHE3 activity under transient conditions (BCECF-AM intracellular pH, FLIPR); parameters: species or system Rat or Human; settings: embodiment compounds, opossum kidney cells expressing NHE3, read-out: Cell-based NHE3 inhibition IC50 (uM) under transient conditions
Source text: as §1
The general procedure of the cell-based NHE3 activity experiments under transient conditions (transient inhibition) was based on an adaptation method of the pH-sensitive dye method originally reported by Tisen (Proc. Natl. Acad. Sci. USA) (1984) 81(23):7436-7440) to measure rat NHE3-mediated Na+-dependent reverse H+ transport, and was optimized according to the instructions “Measuring Intracellular pH With the FLIPR and FLIPR 384 Fluorometric Imaging Plate Reader Systems” published by Molecular Devices. The specific method was: Rat NHE3 OK monoclonal cells or Human NHE3 OK monoclonal cells were inoculated into 384-well plates and grew overnight. The medium was aspirated from the wells and the cells were washed twice with FLIPR buffer (Hank's BSS 1×, 20 mM HEPES, 1% BSA) followed by incubation with FLIPR buffer (Hank's BSS 1×, 20 mM HEPES, 1% BSA) containing […] BCECF-AM (Invitrogen) for 45 min at room temperature. Subsequently, […] of 200 mM NH4Cl-HEPES buffer (Hank's BSS 1×, 20 mM HEPES, 200 mM NH4Cl) was added and the cells were incubated for 15-20 minutes at room temperature. Cells were washed twice with 20 mM NH4Cl-HEPES buffer (Hank's BSS 1×, 20 mM HEPES, 20 mM NH4Cl). NHE3-mediated pH sensitization in cells was normalized by addition of containing 0.4 mM amiloride (EIPA) and […] test compound or Na-HEPES buffer (100 mM NaCl, 50 mM HEPES, 10 mM glucose, 5 mM KCl, 2 mM CaCl2), 1 mM MgCl2, pH 7.4) and monitoring of BCECF-AM fluorescence at λem 535 nm excitated by λex 440 nm and λex 490 nm respectively. Ratio=fluorescence value (λex 490 nm)/fluorescence value (λex 440 nm) was set, the average value of the Ratio difference between the end time and the start time between the duplicate wells was calculated, the average value and the concentration value of the compound were drawn, and Graphpad Prism software was used to estimate IC50 value.

SMILES | IC50 (NHE3 [1]) [µM] | IC50 (NHE3 [2]) [µM]
CN1Cc2c(Cl)cc(Cl)cc2[C@H](c2cccc(S(=O)(=O)NCCOCCOCCNC(=O)NCCCCNC(=O)NCCOCCOCCNS(=O)(=O)c3cccc([C@@H]4CN(C)Cc5c(Cl)cc(Cl)cc54)c3)c2)C1 [Tenapanor, reference compound] | 0.56 | 0.74
CN1Cc2c(Cl)cc(Cl)cc2C(c2ccc3cnn(CCOCCOCCNC(=O)NCCCCNC(=O)NCCOCCOCCn4ncc5ccc(C6CN(C)Cc7c(Cl)cc(Cl)cc76)cc54)c3c2)C1 (stereo not drawn) [Embodiment D1-P2] | 3.61 | 2.33
CN1Cc2c(Cl)cc(Cl)cc2C(c2ccc3c(c2)C(=O)N(CCOCCOCCOCCNC(=O)COCC(=O)NCCOCCOCCOCCN2Cc4ccc(C5CN(C)Cc6c(Cl)cc(Cl)cc65)cc4C2=O)C3)C1 (stereo not drawn) [Embodiment J1] | 0.03 | 0.43
CN1Cc2c(Cl)cc(Cl)cc2C(c2ccc3c(c2)C(=O)N(CCOCCOCCOCCNC(=O)[C@@H](O)[C@@H](O)C(=O)NCCOCCOCCOCCN2Cc4ccc(C5CN(C)Cc6c(Cl)cc(Cl)cc65)cc4C2=O)C3)C1 (stereo partly drawn) [Embodiment J3] | 0.08 | 0.26
CN1Cc2c(Cl)cc(Cl)cc2C(c2ccc3c(c2)C(=O)N(CCOCCOCCNC(=O)NCCCCNC(=O)NCCOCCOCCN2Cc4ccc(C5CN(C)Cc6c(Cl)cc(Cl)cc65)cc4C2=O)C3)C1 (stereo not drawn) [Embodiment B1] | 0.02 | 0.52
CN1Cc2c(Cl)cc(Cl)cc2C(c2ccc3cnn(CCOCCOCCOCCNC(=O)NCCCCNC(=O)NCCOCCOCCOCCn4ncc5ccc(C6CN(C)Cc7c(Cl)cc(Cl)cc76)cc54)c3c2)C1 (stereo not drawn) [Embodiment D2-P2 hydrochloride salt] | 0.12 | 0.27

Source: patent US20240082406A1, “BENZOHETEROCYCLE SUBSTITUTED TETRAHYDROISOQUINOLINE COMPOUND” (SHANGHAI JEMINCARE PHARMACEUTICAL CO., LTD, priority 2020, published 2024)
